# Patent US20240400572A1, “COMPOUNDS AND METHODS FOR TREATING CANCERS THAT ARE MGMT DEFICIENT REGARDLESS OF MMR STATUS” (Yale University, priority 2021, published 2024)
# What was measured:
# LN229 MGMT− MMR+ cells = experiment: Anticancer activity towards LN229 human brain glioblastoma cells (nuclei count after 120 hours); format: cell-based; conditions: LN-229, LN229 quad cells, 200 μM to 0.1 uM
# Protocol: (§1) Exemplary compounds were evaluated for activity against LN229 human brain glioblastoma cells. Experimental procedures and results are provided elsewhere herein.
# (§2) LN229 quad cells were maintained in Dulbecco's Modified Eagle Medium (DMEM) supplemented with 10% fetal bovine serum. Cells were plated into sterile black with glass bottom 384-well plates (Cellvis) at a concentration of 1,000 cells/well (20 μL total volume) using a MultiDrop (Thermo Fisher). Then, assay plates were centrifuged at 300 rpm for 2 seconds and incubated overnight in a 37° C. 5% CO2 incubator. Compounds were prepared as 100 mM stocks in DMSO and stored protected from light at −20′C until use. Prior to compound addition, the stock solutions of compound were diluted two-fold serially in DMSO from 100 mM down to 0.05 mM in a 384-well Source plate. Vehicle control wells containing DMSO and positive control wells containing 10 mM bortezomib were also added to the Source plate. An aliquot in the amount of 40 nL of compound stock solution or DMSO vehicle was transferred from the source plate to the cell assay plate using an Echo Acoustic dispense (Beckman). Three replicate dilution curves of each compound were run on each assay plate. An aliquot in the amount of 120 nL of a 10 mM bortezomib solution was transferred to the positive control wells resulting in a final concentration of 60 μM. The final concentration of compounds ranged from 200 μM to 0.1 uM (12-point, 2-fold dilution dose response curve), and the final DMSO concentration was 0.2%.
# (§3) Assay plates were centrifuged at 500 rpm for 2 seconds and incubated for 120 hours at 37° C. in a humidified 5% CO2 incubator. Following incubation, cells were fixed with 4% paraformaldehyde and stained with DAPI for nuclei visualization. The images were acquired on the InCell 2200 high content imager (GE, now […]), and quantified using InCell Analyzer image analysis software. Z prime factor, signal-to-background and coefficient of variation were calculated for each assays plate using mean and standard deviation values of the negative (vehicle) and positive (bortezomib) control wells to ensure assay robustness. Raw cell count data for test compounds was normalized to percent viability relative to the DMSO vehicle control. Data was plotted in GraphPad Prism using a variable slope 4-parameter fit.
# LN229 MGMT− MMR− cells = experiment: as above; format: cell-based; conditions: LN-229, LN229 quad cells, 200 μM to 0.1 uM
# Protocol: as §1, §2, §3
# LN229 MGMT+ MMR− cells = experiment: as above; format: cell-based; conditions: LN-229, LN229 quad cells, 200 μM to 0.1 uM
# Protocol: as §1, §2, §3
# LN229 MGMT+ MMR+ cells = experiment: as above; format: cell-based; conditions: LN-229, LN229 quad cells, 200 μM to 0.1 uM
# Protocol: as §1, §2, §3
# [1] = test system: WT and XPA-deficient MEFs; experiment: Short-term cell viability assay in NER isogenic MEFs; format: cell-based, mouse; conditions: WT versus XPA-deficient MEFs, ± MGMT depletion with O6BG
# Protocol: FIGS. ZS5A-ZS5D. […] Columns, mean; error bars, SD; n=2 independent analyses. For (FIG. ZS5A) and (FIG. ZS5C), points, mean; error bars, SD; n=3 technical replicates.
# Short-term Cell Viability Assay. Cells were seeded in 96-well plates at 1000 or 2000 cells/well and allowed to adhere at 23° C. for 60 min and then incubated overnight at 37° C. Cells were treated with indicated concentrations of compounds in triplicate for 4-6 days prior to fixation with 3.7% paraformaldehyde and nuclear staining with 1 μg/mL Hoechst 33342 dye. Cells were imaged on a Cytation 3 imaging reader (BioTek) and quantified using CellProfiler software.
# [2] = test system: O^6-guanine adducts in cellular DNA; conditions: dose of 20 μM; cited from earlier work
smiles,measurement,setting,value
"CNC(=O)c1ncn2c(=O)n(CCF)nnc12 [Compound I-1, 3-(2-fluoroethyl)-N-methyl-4-oxo-3H,4H-imidazo[4,3-d][1,2,3,5]tetrazine-8-carboxamide]",IC50,LN229 MGMT− MMR+ cells,10 to 20 µM
same,IC50,LN229 MGMT− MMR− cells,< 10 µM
same,IC50,LN229 MGMT+ MMR− cells,> 80 µM
same,IC50,LN229 MGMT+ MMR+ cells,> 80 µM
"NC(=O)c1ncn2c(=O)n(CCF)nnc12 [KL-50, 3-(2-fluoroethyl)-4-oxo-3H,4H-imidazo[4,3-d][1,2,3,5]tetrazine-8-carboxamide]",sensitivity of XPA deficient cells (in words),[1],absence of additional sensitivity
"Cn1nnc2c(C(N)=O)ncn2c1=O [TMZ, temozolomide, reference compound]",O^6MeG (3) adducts per cell,[2],"20,600"
